{"source": "patent US8227419B2", "about": "“Method of treating conditions associated with airway tissue remodeling” (CRC For Asthma and Airways Ltd., priority 2006, dated 2012)", "key": {"[1]": {"system": "asthmatic smooth muscle cells", "experiment": "MTT proliferation assay, asthmatic airway smooth muscle cells", "format": "cell-based, human", "conditions": "peptide 4.5 μM; all timepoints of FIG. 11; n=4 ASM cell lines", "from_the_text": "Human airway smooth muscle cells were isolated by microdissection from bronchial tissue obtained from either bronchoscopy, lung tissue obtained from lung transplants, or lung tissue resected at thoracotomy. Ethical approval for the use of the lung tissue for/in vitro/experimentation was granted by the Human Ethics Committee of the University of Sydney, and the Sydney South West Area Health Service, and informed consent was received from all subjects. Asthmatic ASM cells were isolated from airway biopsies, and all but one of the non asthmatic derived ASM cells were isolated from either resected lung tissue, or lung transplantation (both donor and recipient) This isolation and culture of ASM cells was carried out according to a method described by Johnson et al. 1995. Briefly, with the use of a dissecting microscope, sterile equipment and aseptic technique, bronchial airways were dissected from the surrounding parenchyma and cut longitudinally. The bronchi were then briefly dipped in 70% (v/v) ethanol in water to kill any surface organisms. The bronchi were then washed in sterile Hanks balanced salt solution three times and pinned down in a sterile Petri dish with the epithelial surface facing upwards. […] Proliferation was assessed using an MTT assay (SIGMA-aldrich, Missouri, USA) at day 3, 7 and 9. […] The specific absorption of each well was measured at 690 nm (reference) and 570 nm."}, "[2]": {"system": "primary lung endothelial cells", "experiment": "MTT proliferation assay, primary lung endothelial cells", "format": "cell-based, human", "conditions": "peptide 4.5 μM; day 3, 7 and 9; n=5 cell lines", "method": "Human pulmonary endothelial cells were isolated from bronchial tissue obtained during lung transplantation. Blood vessels were dissected free from surrounding tissue and cut longitudinally and then cut into approximately 5 mm segments. Blood vessel segments were then placed in a 15 ml falcon tube containing 10 ml of digestive buffer, (1 mg (250 U)/ml type 2 collagenase, 1 U/ml dispase, 10 mg/ml BSA) the tube was placed in the incubator for 10 minutes and agitated every 2 minutes. Digestive mixture was changed every 10 minutes for a total of 50 minutes. 1/10 volume of FBS was added to the supernantants that were removed every 10 minutes. Supernatants were then centrifuged at 200 g for 5 minutes. Supernantants were removed and cells were washed with culture medium, this contained 10% FBS, 10 μg/ml endothelial cell growth supplement, 20 U/ml heparin and 2% antibiotics, and centrifuged at 200 g for 5 minutes. Supernantants were removed and cells were placed in 75 cm^2 vented tissue culture flasks (Falcon Labware) containing 10 ml of culture medium, and incubated for 1 hour at 37° C. […] Proliferation was assessed using an MTT assay (SIGMA-aldrich, Missouri, USA) at day 3, 7 and 9. […] The specific absorption of each well was measured at 690 nm (reference) and 570 nm."}}, "note": "Entries after “also recorded” stand apart in the source; their conditions may differ. Where a SMILES comes first, the peptide text is derived from it.", "data": [{"compound": "CSCC[C@H](NC(=O)[C@@H](NC(=O)[C@@H](NC(=O)[C@H](Cc1ccccc1)NC(=O)[C@H](CCCNC(=N)N)NC(=O)[C@H](CCC(N)=O)NC(=O)[C@@H](N)CC(C)C)[C@@H](C)O)[C@@H](C)O)C(=O)N1CCC[C@H]1C(=O)N[C@@H](Cc1ccccc1)C(=O)N[C@@H](CC(C)C)C(=O)N[C@@H](Cc1ccccc1)C(=O)N[C@@H](CS)C(=O)N[C@@H](CC(N)=O)C(=O)N[C@H](C(=O)N[C@@H](CC(N)=O)C(=O)N[C@@H](CC(=O)O)C(=O)N[C@H](C(=O)N[C@@H](CS)C(=O)N[C@@H](CC(N)=O)C(=O)N[C@@H](Cc1ccccc1)C(=O)O)C(C)C)C(C)C", "note": "[T3] (H-LQRFTTMPFLFCNVNDVCNF-OH; N-terminus and C-terminus assumed)", "values": [{"measurement": "inhibition of FBS-induced proliferation of asthmatic smooth muscle cells", "setting": "[1]", "result": "Neither T3 nor T7 peptides were shown to be able to inhibit; also recorded: not inhibited"}, {"measurement": "inhibition of proliferation of primary lung endothelial cells", "setting": "[2]", "result": "able to inhibit the proliferation; also recorded: significantly inhibited by the presence of T3 peptide at all timepoints"}]}, {"compound": "CSCC[C@H](NC(=O)[C@@H](N)[C@@H](C)O)C(=O)N1CCC[C@H]1C(=O)N[C@@H](Cc1ccccc1)C(=O)N[C@@H](CC(C)C)C(=O)N[C@@H](Cc1ccccc1)C(=O)N[C@@H](CS)C(=O)N[C@@H](CC(N)=O)C(=O)N[C@H](C(=O)N[C@@H](CC(N)=O)C(=O)N[C@@H](CC(=O)O)C(=O)N[C@H](C(=O)N[C@@H](CS)C(=O)N[C@@H](CC(N)=O)C(=O)N[C@@H](Cc1ccccc1)C(=O)N[C@@H](C)C(=O)N[C@@H](CO)C(=O)N[C@@H](CCCNC(=N)N)C(=O)N[C@@H](CC(N)=O)C(=O)N[C@@H](CC(=O)O)C(=O)N[C@@H](Cc1ccc(O)cc1)C(=O)N[C@@H](CO)C(=O)N[C@@H](Cc1ccc(O)cc1)C(=O)N[C@@H](Cc1c[nH]c2ccccc12)C(=O)N[C@@H](CC(C)C)C(=O)O)C(C)C)C(C)C", "note": "[T7] (H-TMPFLFCNVNDVCNFASRNDYSYWL-OH; N-terminus and C-terminus assumed)", "values": [{"measurement": "inhibition of FBS-induced proliferation of asthmatic smooth muscle cells", "setting": "[1]", "result": "Neither T3 nor T7 peptides were shown to be able to inhibit; also recorded: not inhibited"}, {"measurement": "inhibition of proliferation of primary lung endothelial cells", "setting": "[2]", "result": "able to inhibit the proliferation; also recorded: inhibited proliferation at both day 7 and day 9"}]}]}
